Where a name gives a salt, the structure may show the parent alone.
Legend:
[1] = tested on: ENR+CD organoids (ISC to Paneth cell differentiation); assay: Primary screen: basal (non-stimulated) lysozyme secretion LYZ.NS, 2.5-D 384-well ENR+CD organoid differentiation; assay type: cell-based, mouse
Description: (§1) High-throughput screening.

[2] = tested on: ENR+CD organoids (ISC to Paneth cell differentiation); assay: Primary screen: CCh-stimulated lysozyme secretion LYZ.S, 2.5-D 384-well ENR+CD organoid differentiation; assay type: cell-based, mouse; conditions: primary screen
Description: as §1

[3] = tested on: ENR+CD organoids; assay: Primary screen: ATP (CellTiter-Glo 3D, CTG) cell number/viability, 2.5-D 384-well ENR+CD organoids; conditions: primary screen;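 further: compounds given at plating and again on day 3 over a 6-day differentiation from ENR+CV stem-cell-enriched precursors, ATP measured on day 6, plate median as control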
[4] = dose 0.08 uM, FC relative to plate median
[5] = dose 0.40 uM, FC relative to plate median
[6] = dose 2.00 uM, FC relative to plate median
[7] = dose 10.00 uM, FC relative to plate median

SMILES | Dose.FC.LYZ.NS ([1]; primary screen, dose 0.08 uM) [log2 fold change] | Z.LYZ.NS (standard z score) ([1]; primary screen, dose 0.08 uM) | Dose.FC.LYZ.NS ([1]; primary screen, dose 0.40 uM) [log2 fold change] | Z.LYZ.NS (standard z score) ([1]; primary screen, dose 0.40 uM) | Dose.FC.LYZ.NS ([1]; primary screen, dose 2.00 uM) [log2 fold change] | Z.LYZ.NS (standard z score) ([1]; primary screen, dose 2.00 uM) | Dose.FC.LYZ.NS ([1]; primary screen, dose 10.00 uM) [log2 fold change] | Z.LYZ.NS (standard z score) ([1]; primary screen, dose 10.00 uM) | Dose.FC.LYZ.S ([2]; dose 0.08 uM) [log2 fold change] | Dose.FC.LYZ.S ([2]; dose 0.40 uM) [log2 fold change] | Dose.FC.LYZ.S ([2]; dose 2.00 uM) [log2 fold change] | Dose.FC.LYZ.S ([2]; dose 10.00 uM) [log2 fold change] | Dose.FC.CTG ([3]; dose 0.08 uM) [log2 fold change] | Dose.FC.CTG ([3]; dose 0.40 uM) [log2 fold change] | Dose.FC.CTG ([3]; dose 2.00 uM) [log2 fold change] | Dose.FC.CTG ([3]; dose 10.00 uM) [log2 fold change] | Z.CTG (standard z score) ([3]; dose 0.08 uM) | Z.CTG (standard z score) ([3]; dose 0.40 uM) | Z.CTG (standard z score) ([3]; dose 2.00 uM) | Z.CTG (standard z score) ([3]; dose 10.00 uM) | other results
CCC(=O)NCC[C@@H]1CCc2ccc3c(c21)CCO3 [Ramelteon] |  |  |  |  |  |  |  |  |  |  |  |  |  |  |  |  |  |  |  |  | Dose.FC.LYZ.NS ([1]; primary screen, dose 0.08 uM, FC relative to plate median): 0.062 log2 fold change; Z.LYZ.NS ([1]; primary screen, dose 0.08 uM, standard z score): 0.537; Dose.FC.LYZ.NS ([1]; primary screen, dose 0.40 uM, FC relative to plate median): 0.082 log2 fold change; Z.LYZ.NS ([1]; primary screen, dose 0.40 uM, standard z score): 0.712; Dose.FC.LYZ.NS ([1]; primary screen, dose 2.00 uM, FC relative to plate median): −0.013 log2 fold change; Z.LYZ.NS ([1]; primary screen, dose 2.00 uM, standard z score): −0.109; Dose.FC.LYZ.NS ([1]; primary screen, dose 10.00 uM, FC relative to plate median): 0.007 log2 fold change; Z.LYZ.NS ([1]; primary screen, dose 10.00 uM, standard z score): 0.062; Dose.FC.LYZ.S [2, 4]: 0.030 log2 fold change; Dose.FC.LYZ.S [2, 5]: 0.103 log2 fold change; Dose.FC.LYZ.S [2, 6]: −0.009 log2 fold change; Dose.FC.LYZ.S [2, 7]: 0.001 log2 fold change; Dose.FC.CTG [3, 4]: −0.028 log2 fold change; Dose.FC.CTG [3, 5]: 0.155 log2 fold change; Dose.FC.CTG [3, 6]: −0.315 log2 fold change; Dose.FC.CTG [3, 7]: 0.150 log2 fold change
COc1ccc(-n2nc(C(N)=O)c3c2C(=O)N(c2ccc(N4CCCCC4=O)cc2)CC3)cc1 [Apixaban] | 0.004 | 0.035 | −0.030 | −0.260 | 0.029 | 0.253 | −0.082 | −0.712 | 0.081 | 0.029 | 0.051 | −0.096 | −0.089 | 0.111 | −0.060 | −0.077 |  |  |  |  | 
COc1cc2nc(N3CCN(C(=O)C4COc5ccccc5O4)CC3)nc(N)c2cc1OC (stereo not shown) [Doxazosin Mesylate] | 0.073 |  | 0.044 |  | 0.047 |  | 0.039 |  | 0.093 | 0.084 | 0.030 | 0.015 | 0.072 | −0.015 | 0.146 | 0.075 |  |  |  |  | Z.LYZ.NS ([1]; primary screen, standard z score, dose 0.08 uM): 0.633; Z.LYZ.NS ([1]; primary screen, standard z score, dose 0.40 uM): 0.387; Z.LYZ.NS ([1]; primary screen, standard z score, dose 2.00 uM): 0.413; Z.LYZ.NS ([1]; primary screen, standard z score, dose 10.00 uM): 0.340
COc1cc(-c2ncn(/C=C\C(=O)OC(C)C)n2)cc(C(F)(F)F)c1 [KPT-185] |  | −0.049 |  | 0.846 |  | −1.820 |  | −0.744 |  |  |  |  |  |  |  |  | 0.277 | 0.248 | −2.377 | −2.041 | Dose.FC.LYZ.NS (log2 fold change) ([1]; primary screen, dose 0.08 uM): −0.006; Dose.FC.LYZ.NS (log2 fold change) ([1]; primary screen, dose 0.40 uM): 0.097; Dose.FC.LYZ.NS (log2 fold change) ([1]; primary screen, dose 2.00 uM): −0.209; Dose.FC.LYZ.NS (log2 fold change) ([1]; primary screen, dose 10.00 uM): −0.085; Dose.FC.LYZ.S (log2 fold change) ([2]; dose 0.08 uM): −0.015; Dose.FC.LYZ.S (log2 fold change) ([2]; dose 0.40 uM): 0.220; Dose.FC.LYZ.S (log2 fold change) ([2]; dose 2.00 uM): −0.322; Dose.FC.LYZ.S (log2 fold change) ([2]; dose 10.00 uM): −0.153; Dose.FC.CTG (log2 fold change) ([3]; dose 0.08 uM): 0.116; Dose.FC.CTG (log2 fold change) ([3]; dose 0.40 uM): 0.104; Dose.FC.CTG (log2 fold change) ([3]; dose 2.00 uM): −0.995; Dose.FC.CTG (log2 fold change) ([3]; dose 10.00 uM): −0.855
C=CC(=O)Nc1cccc(Nc2nc(Nc3ccc(OCCOC)cc3)ncc2F)c1 [AVL-292] | 0.095 | 0.831 | 0.052 | 0.451 | −0.112 | −0.979 | −0.213 | −1.858 | 0.235 | 0.106 | −0.206 | −0.376 | 0.217 | 0.057 | −0.058 | −0.778 | 0.518 | 0.135 | −0.138 | −1.859 | 

Reference: US20220323406A1, “METHODS AND COMPOSITIONS FOR DIFFERENTIATING STEM CELLS” (Massachusetts Institute of Technology, priority 2019, published 2022)
